Experiment [1] deals with Human recombinant Acetyl-CoA Carboxylase 1 (ACC1) (Homo sapiens, UniProt Q13085). The experiment can be described thus: Assay X: ACC1 inhibition, inorganic phosphate (malachite green). The experiment is classed as biochemical. To be noted: Assay X: 37° C., 1.5 h, 5 min pre-incubation. The protocol: Human recombinant Acetyl-CoA Carboxylase 1 and Acetyl-CoA Carboxylase 2 (ACC1 and ACC2) were assayed by determining the amount of inorganic phosphate (Pi) generated. Pre-incubation of 15 μL enzyme together with 0.75 μL DMSO+/−compound for 5 min was done before the reaction was initiated by the addition of 10 μL substrate. […] After 1.5 h the reaction was stopped by addition of 74 μL of water followed by extensive mixing, split and transfer of 2×40 μL to a read-plate encompassing 30 μL distilled H2O per well (n=2→n=4). Colour reaction was initiated by addition of 30 μL malachite green reagent per well and allowed 15 min before absorbance reading of the plates at 660 nm. The malachite green reagent was prepared by mixing 16.4 mL ammonium molybdate solution (7.5%), 1.64 mL Tween (11%) with 82 mL Malachite Green/H2SO4-solution (0.7 g Malachite Green to 1000 mL of 10% (v/v) H2SO4).
All compounds were tested in triplicate at 10 different concentrations. Control compound (0, 50 and 100% effect) was included on each plate. […] Curve fitting was done using the following equation: y=(A+((B−A)/(1+((x/C)̂D)))) where A and B represents the curve bottom (% inhibition) and the total amplitude (% inhibition), respectively, whereas C and D are the apparent IC50 and curve slope, respectively.

For experiment [2], the target named is Human recombinant Acetyl-CoA Carboxylase 2 (ACC2) (Homo sapiens, UniProt O00763). The experiment can be described thus: Assay X: ACC2 inhibition, inorganic phosphate (malachite green). The experiment is classed as biochemical. The following applies: Assay X: 37° C., 1.5 h, 5 min pre-incubation. The procedure, abridged:
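Human recombinant enzyme pre-incubated 5 min with compound before substrate addition; reaction run 1.5 h, then inorganic phosphate detected by malachite green absorbance at 660 nm. Ten concentrations tested in triplicate; apparent IC50 from four-parameter curve fit.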

Results on 18 molecules are retold here after US20090306133A1, “New Acetyl Coenzyme A Carboxylase (ACC) Inhibitors And Uses In Treatments Of Obesity And Diabetes Mellitus - 087” (ASTRAZENECA AB, priority 2007, published 2009).

Structures are written as SMILES.

Human recombinant Acetyl-CoA Carboxylase 2 (ACC2), sequence (O00763 whole entry): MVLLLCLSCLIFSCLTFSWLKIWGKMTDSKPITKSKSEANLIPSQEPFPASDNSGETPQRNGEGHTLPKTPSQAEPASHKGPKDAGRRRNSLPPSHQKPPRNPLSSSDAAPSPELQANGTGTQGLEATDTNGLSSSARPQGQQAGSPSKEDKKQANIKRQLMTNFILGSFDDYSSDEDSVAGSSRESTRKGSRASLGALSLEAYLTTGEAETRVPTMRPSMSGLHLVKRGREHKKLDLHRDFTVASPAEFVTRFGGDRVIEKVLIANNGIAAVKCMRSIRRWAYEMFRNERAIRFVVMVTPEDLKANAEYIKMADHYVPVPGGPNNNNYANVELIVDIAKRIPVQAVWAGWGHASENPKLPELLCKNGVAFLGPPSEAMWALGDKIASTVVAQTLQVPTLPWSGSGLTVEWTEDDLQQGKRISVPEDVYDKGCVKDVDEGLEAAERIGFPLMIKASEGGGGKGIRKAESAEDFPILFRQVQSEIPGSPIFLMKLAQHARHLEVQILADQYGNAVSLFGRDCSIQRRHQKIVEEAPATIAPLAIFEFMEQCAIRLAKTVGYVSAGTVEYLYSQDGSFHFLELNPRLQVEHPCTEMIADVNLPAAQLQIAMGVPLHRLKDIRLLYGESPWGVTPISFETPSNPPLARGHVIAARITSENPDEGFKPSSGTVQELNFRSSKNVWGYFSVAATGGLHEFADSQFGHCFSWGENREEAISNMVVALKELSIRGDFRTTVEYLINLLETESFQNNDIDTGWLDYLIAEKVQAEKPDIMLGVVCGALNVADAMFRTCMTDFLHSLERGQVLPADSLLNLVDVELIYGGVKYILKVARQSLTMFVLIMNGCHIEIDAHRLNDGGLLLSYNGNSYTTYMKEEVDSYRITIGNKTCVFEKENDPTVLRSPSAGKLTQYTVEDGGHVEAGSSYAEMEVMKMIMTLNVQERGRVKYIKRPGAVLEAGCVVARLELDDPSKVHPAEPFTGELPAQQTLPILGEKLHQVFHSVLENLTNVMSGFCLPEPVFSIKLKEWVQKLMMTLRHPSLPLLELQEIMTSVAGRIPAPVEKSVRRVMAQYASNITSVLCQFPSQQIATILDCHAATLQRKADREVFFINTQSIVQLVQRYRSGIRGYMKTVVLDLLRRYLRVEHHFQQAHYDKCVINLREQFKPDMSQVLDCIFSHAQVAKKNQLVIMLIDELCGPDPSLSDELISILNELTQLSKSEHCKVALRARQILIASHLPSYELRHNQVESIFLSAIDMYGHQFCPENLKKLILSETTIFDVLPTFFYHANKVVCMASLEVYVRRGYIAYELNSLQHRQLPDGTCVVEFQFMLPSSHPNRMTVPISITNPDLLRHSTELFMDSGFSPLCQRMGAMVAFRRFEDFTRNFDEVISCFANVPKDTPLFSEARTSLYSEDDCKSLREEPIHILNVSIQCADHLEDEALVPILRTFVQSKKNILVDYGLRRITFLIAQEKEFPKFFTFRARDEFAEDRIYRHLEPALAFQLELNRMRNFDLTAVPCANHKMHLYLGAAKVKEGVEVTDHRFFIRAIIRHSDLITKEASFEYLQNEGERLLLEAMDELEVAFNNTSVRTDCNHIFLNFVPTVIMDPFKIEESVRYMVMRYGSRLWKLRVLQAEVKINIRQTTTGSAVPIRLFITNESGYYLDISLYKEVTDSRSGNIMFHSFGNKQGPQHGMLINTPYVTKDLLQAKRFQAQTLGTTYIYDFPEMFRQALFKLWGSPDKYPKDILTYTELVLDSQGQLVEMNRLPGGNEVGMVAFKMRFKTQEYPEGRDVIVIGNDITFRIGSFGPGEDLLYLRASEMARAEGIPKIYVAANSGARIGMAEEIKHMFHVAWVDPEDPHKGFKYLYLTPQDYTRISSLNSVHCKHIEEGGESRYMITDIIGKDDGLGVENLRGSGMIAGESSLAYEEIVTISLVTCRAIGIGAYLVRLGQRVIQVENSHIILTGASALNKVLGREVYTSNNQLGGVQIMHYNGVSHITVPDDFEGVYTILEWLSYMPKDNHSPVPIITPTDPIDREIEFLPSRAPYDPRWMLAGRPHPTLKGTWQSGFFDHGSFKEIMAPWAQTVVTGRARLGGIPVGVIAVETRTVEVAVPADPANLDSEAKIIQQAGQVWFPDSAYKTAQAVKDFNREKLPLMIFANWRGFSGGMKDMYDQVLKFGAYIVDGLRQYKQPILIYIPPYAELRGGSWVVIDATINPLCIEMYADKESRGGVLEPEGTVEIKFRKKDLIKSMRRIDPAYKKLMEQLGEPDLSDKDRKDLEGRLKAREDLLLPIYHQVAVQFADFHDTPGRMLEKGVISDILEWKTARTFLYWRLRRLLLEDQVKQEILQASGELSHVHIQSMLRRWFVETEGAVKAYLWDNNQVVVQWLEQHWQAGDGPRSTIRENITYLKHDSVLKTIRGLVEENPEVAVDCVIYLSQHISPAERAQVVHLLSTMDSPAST

Take `CC(C)(C)OC(=O)NC[C@H]1CC[C@H](CNC(=O)c2cc(-c3ccc(N4CNC(=O)C4)nc3)nc3ccccc23)CC1` [Example 172, tert-Butyl[(trans-4-{[({2-[6-(4-oxoimidazolidin-1-yl)-pyridin-3-yl]quinolin-4-yl}carbonyl)amino]-methyl}cyclohexyl)-methyl]carbamate]: the IC50 in experiment [1] came to 3500 nM; in experiment [2] it was 160 nM.

As for `CC(C)(C)OC(=O)NC[C@H]1CC[C@H](CNC(=O)c2cc(N3CCC(CCN4CCCC4)CC3)nc3ccccc23)CC1` [Example 231, tert-Butyl[(trans-4-{[({2-[4-(2-pyrrolidin-1-ylethyl)piperidin-1-yl]quinolin-4-yl}carbonyl)amino]-methyl}cyclohexyl)-methyl]carbamate], the figures for the IC50 in experiment [1] and in experiment [2] were 700 nM and 80 nM, respectively.

Consider `CC(C)(C)OC(=O)NC[C@H]1CC[C@H](CNC(=O)c2cc(N3CCC(CCNCCF)CC3)nc3ccccc23)CC1` [Example 244], for which the IC50 in experiment [1] turned out to be 1250 nM; in experiment [2] it was 150 nM.

With `CC(C)(C)OC(=O)NC[C@H]1CC[C@H](CNC(=O)c2c(N)sc3ccccc23)CC1` [Example 222, tert-Butyl {[trans-4-({[(2-amino-1-benzothiophen-3-yl)carbonyl]amino}methyl)-cyclohexyl]methyl}carbamate], the figures for the IC50 in experiment [1] and in experiment [2] were 9100 nM and 3400 nM, respectively.

As for `CN(C)CCNC(=O)C1CN(c2cc(C(=O)NC[C@H]3CC[C@H](CNC(=O)OC(C)(C)C)CC3)c3ccccc3n2)C1` [Example 217, tert-Butyl ({trans-4-[({[2-(3-{[2-(dimethylamino)ethyl]carbamoyl}azetidin-1-yl)quinolin-4-yl]carbonyl}amino)methyl]cyclohexyl}methyl)carbamate], the IC50 in experiment [1] amounted to 4700 nM; in experiment [2] it was 730 nM.

Turning to `CN(C)CCC1CCN(c2cc(C(=O)NC[C@H]3CC[C@H](CNC(=O)OC4CCOCC4)CC3)c3ccccc3n2)CC1` [Example 224, Tetrahydro-2H-pyran-4-yl {[trans-4-({[(2-{4-[2-(dimethylamino)ethyl]piperidin-1-yl}quinolin-4-yl)carbonyl]amino}methyl)cyclohexyl]methyl}carbamate], the IC50 in experiment [1] stood at 6310 nM; in experiment [2], 680 nM.

As for `CN1CCC(C2CCN(c3cc(C(=O)NC[C@H]4CC[C@H](CNC(=O)OC(C)(C)C)CC4)c4ccccc4n3)CC2)CC1` [Example 225, tert-Butyl ({trans-4-[({[2-(1′-methyl-4,4′-bipiperidin-1-yl)quinolin-4-yl]carbonyl}amino)methyl]cyclohexyl}methyl)carbamate], the results for the IC50 in experiment [1] and in experiment [2] were 950 nM and 110 nM, respectively.

On to `CC(C)(C)OC(=O)NC[C@H]1CC[C@H](CNC(=O)c2cc(-c3ccc(NCCC(N)=O)nc3)nc3ccccc23)CC1` [Example 167, tert-Butyl{[trans-4-({[(2-{6-[(3-amino-3-oxopropyl)amino]pyridin-3-yl}quinolin-4-yl)-carbonyl]amino}methyl)cyclohexyl]methyl}carbamate], for which the IC50 in experiment [1] stood at 4400 nM; in experiment [2] it was 1580 nM.

Consider `CC(C)(C)OC(=O)NC[C@H]1CC[C@H](CNC(=O)c2cc(N3CCC(CCN4CC(N)C4)CC3)nc3ccccc23)CC1` [Example 236, tert-Butyl {[trans-4-({[(2-{4-[2-(3-aminoazetidin-1-yl)ethyl]piperidin-1-yl}quinolin-4-yl)carbonyl]amino}methyl)cyclohexyl]methyl}carbamate], for which the values for the IC50 in experiment [1] and in experiment [2] were 550 nM and 80 nM, respectively.

Regarding `CN1CCN(c2ccc(-c3cc(C(=O)NC[C@H]4CC[C@H](CNC(=O)OCC5CCOC5)CC4)c4ccccc4n3)cn2)CC1` (stereo partly drawn) [Example 126, Tetrahydrofuran-3-ylmethyl[(trans-4-{[({2-[6-(4-methylpiperazin-1-yl)pyridin-3-yl]quinolin-4-yl}carbonyl)amino]methyl}cyclohexyl)methyl]carbamate], the IC50 was 1670 nM in experiment [1] and 420 nM in experiment [2].

Consider `CN1CCN(c2ccc(-c3cc(C(=O)NC[C@H]4CC[C@H](CNC(=O)OCC5CCCO5)CC4)c4ccccc4n3)cn2)CC1` (stereo partly drawn) [Example 127, Tetrahydrofuran-2-ylmethyl[(trans-4-{[({2-[6-(4-methylpiperazin-1-yl)pyridin-3-yl]quinolin-4-yl}carbonyl)amino]methyl}cyclohexyl)methyl]carbamate], for which the values for the IC50 in experiment [1] and in experiment [2] were 3780 nM and 880 nM, respectively.

`Cc1nc(CNc2ccc(-c3cc(C(=O)NC[C@H]4CC[C@H](CNC(=O)OC(C)(C)C)CC4)c4ccccc4n3)cn2)no1` [Example 170, tert-Butyl({trans-4-[({[2-(6-{[(5-methyl-1,2,4-oxadiazol-3-yl)methyl]amino}-pyridin-3-yl)quinolin-4-yl]carbonyl}amino)-methyl]cyclohexyl}-methyl)carbamate]: the IC50 in experiment [1] amounted to 1200 nM; in experiment [2] it was 480 nM.

For the molecule `CC(C)(C)OC(=O)NC[C@H]1CC[C@H](CNC(=O)c2cc(-c3ccc(N)cc3)nc3ccccc23)CC1` [Example 218, tert-Butyl ({trans-4-[({[2-(4-aminophenyl)quinolin-4-yl]carbonyl}amino)-methyl]cyclohexyl}methyl)carbamate], the IC50 in experiment [1] is 210 nM; in experiment [2], 60 nM.

For the molecule `CC(=O)NCCOC(=O)NC[C@H]1CC[C@H](CNC(=O)c2cc(-c3ccc(N4CCN(C)CC4)nc3)nc3ccccc23)CC1` [Example 122, 2-Acetamidoethyl[(trans-4-{[({2-[6-(4-methylpiperazin-1-yl)pyridin-3-yl]quinolin-4-yl}carbonyl)amino]methyl}cyclohexyl)methyl]carbamate], the IC50 was determined as 8130 nM in experiment [1] and 1860 nM in experiment [2].

With `CN(C)CCOC1CN(c2cc(C(=O)NC[C@H]3CC[C@H](CNC(=O)OC(C)(C)C)CC3)c3ccccc3n2)C1` [Example 238, tert-Butyl {[trans-4-({[(2-{3-[2-(dimethylamino)ethoxy]azetidin-1-yl}quinolin-4-yl)carbonyl]amino}methyl)cyclohexyl]methyl}carbamate], the IC50 was 4450 nM in experiment [1] and 630 nM in experiment [2].

Turning to `CC(C)(C)OC(=O)NC[C@H]1CC[C@H](CNC(=O)c2cc(N3CCC(CCN)CC3)nc3ccccc23)CC1` [Example 194, tert-Butyl [(trans-4-{[({2-[4-(2-aminoethyl)piperidin-1-yl]quinolin-4-yl}carbonyl)amino]methyl}cyclohexyl)methyl]carbamate], the values for the IC50 in experiment [1] and in experiment [2] were 510 nM and 50 nM, respectively.

For the molecule `CN(C)CCNc1ccc(-c2cc(C(=O)NC[C@H]3CC[C@H](CNC(=O)O[C@H]4CCOC4)CC3)c3ccccc3n2)cn1` [Example 199, (3S)-Tetrahydrofuran-3-yl({trans-4-[({[2-(6-{[2-(dimethylamino)ethyl]-amino}pyridin-3-yl)quinolin-4-yl]carbonyl}amino)-methyl]cyclohexyl}-methyl)carbamate], the IC50 stood at 1600 nM in experiment [1] and 370 nM in experiment [2].

Consider `CN(C)CCNc1ccc(-c2cc(C(=O)NC[C@H]3CC[C@H](CNC(=O)OC4CCOCC4)CC3)c3ccccc3n2)cn1` [Example 198, Tetrahydro-2H-pyran-4-yl({trans-4-[({[2-(6-{[2-(dimethylamino)-ethyl]amino}pyridin-3-yl)quinolin-4-yl]carbonyl}amino)-methyl]cyclohexyl}-methyl)carbamate], for which the IC50 in experiment [1] was found to be 1420 nM; in experiment [2], 380 nM.

Broadly, the IC50 is the concentration that gives 50% inhibition.
